Results: patent US4450167A, “3-Quinoline carboxamides having anxiolytic activity” (Roussel Uclaf, priority 1981, dated 1984)

Target: benzodiazepine receptors
Assay: Affinity for benzodiazepine receptors (3H Diazepam displacement, rat cortex membranes)
Type: binding
Settings: rat brain cortex membranes, 3H Diazepam 10^-9 moles, 0° C., 30 minutes; read-out: CI50, concentration inhibiting by 50% the specific bonding of 3H diazepam
Method: The test was inspired by Mohler et al [Science, No. 198 (1977), p. 849-851] in which the cortex was removed from the brains of male rats weighing an average of 150 g and homogenized at a ratio of 1 part by weight per 20 parts by volume of 0.32 M sucrose. The homogenized mixture was centrifuged at 1000 g for 10 minutes at 0° C. and the surnageant was centrifuged at 30,000 g for 20 minutes at 4° C. The culot was suspended in 20 volumes of Tris HCl 50 mM buffer with a pH of 7.4 and the suspension was centrifuged at 30,000 g for 20 minutes at 4° C. The resulting culot was suspended in 50 ml of Krebs Tris HCl buffered at a pH of 7.4 and 2 ml of the suspension was incubated at 0° C. for 30 minutes in the presence of ^3 H Diazepam at a concentration of 10^-9 moles with increasing concentration of the test product to determine the non-specificfixation with non-radioactive Diazepam at a concentration of 10^-6 moles.
The incubated suspensions were filtered through a Whatman GF/C filter and the filters were washed twice with 5 ml of Krebs Tris HCl buffer at a pH of 7.4 not 0° C. The radioactivity of the filters was measured by liquid scintillation and the affinity of the test product for benzodiazepine receptors was expressed in CI50 or the concentration inhibiting by 50% the specific bonding of ^3 H diapezam.

SMILES | IC50 [nM]
CCOc1ccc(NC(=O)c2cnc3ccccc3c2O)cc1 [Example 1, 4-hydroxy-N-(4-ethoxyphenyl)-3-quinoline-carboxamide] | 40
COc1ccc(NC(=O)c2cnc3ccccc3c2O)cc1 [Example 6, 4-hydroxy-N-(4-methoxyphenyl)-3-quinoline-carboxamide] | 7.5
O=C(Nc1ccc(O)cc1)c1cnc2ccccc2c1O [Example 7, 4-hydroxy-N-(4-hydroxyphenyl)-3-quinoline-carboxamide] | 4.4
CCNC(=O)c1cnc2ccccc2c1O [Example 8, 4-hydroxy-N-ethyl-3-quinoline-carboxamide] | 11
CCCCNC(=O)c1cnc2ccccc2c1O [Example 9, 4-hydroxy-N-butyl-3-quinoline-carboxamide] | 3.7
CCCCCCNC(=O)c1cnc2ccccc2c1O [Example 10, 4-hydroxy-N-n-hexyl-3-quinoline-carboxamide] | 6.7
COc1ccccc1NC(=O)c1cnc2ccccc2c1O [Example 13, 4-hydroxy-N-(2-methoxy-phenyl)-3-quinoline-carboxamide] | 54
COc1cccc(NC(=O)c2cnc3ccccc3c2O)c1 [Example 16, 4-hydroxy-N-(3-methoxy-phenyl)-3-quinoline-carboxamide] | 6.6
COc1ccc(NC(=O)c2c(C)nc3ccccc3c2O)cc1 [Example 23, 4-hydroxy-N-(4-methoxyphenyl)-2-methyl-3-quinoline-carboxamide] | 23
CCCNC(=O)c1cnc2ccccc2c1O [Example 24, 4-hydroxy-N-propyl-3-quinoline-carboxamide] | 1.2
